pIC50: −log10 of the molar value.

In one test the target is T1, human glucagon receptor (Homo sapiens, UniProt P47871).
T1 construct: made in house; host or cells: FreeStyle CHO cells, transient transfection with pMSRαneo/hGCGR; membrane fraction (35,000 rpm pellet)
T1 sequence (P47871 26-477): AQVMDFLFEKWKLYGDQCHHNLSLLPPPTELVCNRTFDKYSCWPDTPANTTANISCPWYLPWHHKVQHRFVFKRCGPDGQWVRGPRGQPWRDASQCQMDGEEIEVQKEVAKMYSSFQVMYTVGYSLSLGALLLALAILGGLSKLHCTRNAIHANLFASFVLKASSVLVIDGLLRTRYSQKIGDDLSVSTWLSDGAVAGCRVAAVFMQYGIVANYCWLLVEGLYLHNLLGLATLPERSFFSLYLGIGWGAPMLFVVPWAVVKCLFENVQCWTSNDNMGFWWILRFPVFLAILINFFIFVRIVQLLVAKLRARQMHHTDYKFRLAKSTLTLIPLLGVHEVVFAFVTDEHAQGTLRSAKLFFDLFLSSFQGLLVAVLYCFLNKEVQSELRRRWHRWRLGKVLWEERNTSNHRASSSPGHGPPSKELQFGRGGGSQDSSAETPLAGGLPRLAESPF
The test can be described thus: Glucagon binding inhibitory activity ([125I]-glucagon binding to glucagon receptor membrane protein). To be noted: human glucagon receptor membrane protein, [125I]-glucagon, 90 min room temperature. A digest of the protocol: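 Receptor source was a membrane fraction of transiently transfected CHO cells bearing human receptor; 90 min room-temperature binding, filtration harvest, scintillation counting.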
In general, pIC50 refers to the IC50 on a negative log10 scale, so that one unit is a factor of ten. A lower pIC50 goes with a large IC50. In turn, `Cn1c(C(Nc2ccc(C(=O)NCCC(=O)O)cc2)C2CCCCC2)nc2ccccc21` (stereo not drawn) [Example A3, 3-{[(4-{[cyclohexyl(1-methyl-1H-benzimidazol-2-yl)methyl]amino}phenyl)carbonyl]amino}propanoic acid] had a pIC50 of 5.77.

Turning to `CN(CCC(=O)O)C(=O)c1ccc(NC(c2nn(C)c3ccccc23)C2CCCCC2)cc1` (stereo not drawn) [Example A7, 3-{[(4-{[cyclohexyl(1-methyl-1H-indazol-3-yl)methyl]amino}phenyl)carbonyl](methyl)amino}propanoic acid], the pIC50 is 5.74.

The molecule `O=C(O)CCNC(=O)c1ccc(NC(c2cc3ccc(C(F)(F)F)cc3s2)C2CCCCC2)cc1` (stereo not drawn) [Example A12, 3-({[4-({cyclohexyl[6-(trifluoromethyl)-1-benzothiophen-2-yl]methyl}amino)phenyl]carbonyl}amino)propanoic acid] gave a pIC50 of 6.68.

The test is the same for the next values; noted with them: test compound 10 μM; 0.4% DMSO = 0%, non-labeled glucagon 1 μM = 100%; read-out: inhibitory rate (%) at 10 μM.
In the case of `COc1ccccc1-n1cc(C)c(C(Nc2ccc(C(=O)N(C)CCC(=O)O)cc2)C2CCCCC2)n1` (stereo not drawn) [Example 77, 3-[{[4-({cyclohexyl[1-(2-methoxyphenyl)-4-methyl-1H-pyrazol-3-yl]methyl}amino)phenyl]carbonyl}(methyl)amino]propanoic acid], the inhibition at 10 µM came to 55%.

Take `CCc1nn(-c2cccc(OC)c2)cc1C(Nc1ccc(C(=O)N(C)CCC(=O)O)cc1)C1CCCCC1` (stereo not drawn) [Example 78, 3-[{[4-({cyclohexyl[3-ethyl-1-(3-methoxyphenyl)-1H-pyrazol-4-yl]methyl}amino)phenyl]carbonyl}(methyl)amino]propanoic acid]: the inhibition at 10 µM stood at 69%.

`COc1cccc(-n2cc(C(Nc3ccc(C(=O)N(C)CCC(=O)O)cc3)C3CCCCC3)c(C(C)C)n2)c1` (stereo not drawn) [Example 79, 3-[{[4-({cyclohexyl[1-(3-methoxyphenyl)-3-(1-methylethyl)-1H-pyrazol-4-yl]methyl}amino)phenyl]carbonyl}(methyl)amino]propanoic acid]: the inhibition at 10 µM was determined as 67%.

For `COc1cc(OC)cc(-n2cc(C(Nc3ccc(C(=O)N(C)CCC(=O)O)cc3)C3CCCCC3)c(C)n2)c1` (stereo not drawn) [Example 81, 3-[{[4-({cyclohexyl[1-(3,5-dimethoxyphenyl)-3-methyl-1H-pyrazol-4-yl]methyl}amino)phenyl]carbonyl}(methyl)amino]propanoic acid], the inhibition at 10 µM was found to be 82%.

As for `COc1cc(OC)cc(-n2cc(C(Nc3ccc(C(=O)NCCC(=O)O)cc3)C3CCCCC3)c(C)n2)c1` (stereo not drawn) [Example 82, 3-({[4-({cyclohexyl[1-(3,5-dimethoxyphenyl)-3-methyl-1H-pyrazol-4-yl]methyl}amino)phenyl}carbonyl]amino)propanoic acid], the inhibition at 10 µM was determined as 78%.

With `CCOc1cccc(-n2cc(C(Nc3ccc(C(=O)N(C)CCC(=O)O)cc3)C3CCCCC3)c(CC)n2)c1` (stereo not drawn) [Example 83, 3-[{[4-({cyclohexyl[1-(3-ethoxyphenyl)-3-ethyl-1H-pyrazol-4-yl]methyl}amino)phenyl]carbonyl}(methyl)amino]propanoic acid], the inhibition at 10 µM was 78%.

`CCOc1cccc(-n2cc(C(Nc3ccc(C(=O)NCCC(=O)O)cc3)C3CCCCC3)c(CC)n2)c1` (stereo not drawn) [Example 84, 3-({[4-({cyclohexyl[1-(3-ethoxyphenyl)-3-ethyl-1H-pyrazol-4-yl]methyl}amino)phenyl]carbonyl}amino)propanoic acid]: the inhibition at 10 µM is 76%.

`CCOc1cccc(-n2cc(C(CC(C)C)Nc3ccc(C(=O)N(C)CCC(=O)O)cc3)c(CC)n2)c1` (stereo not drawn) [Example 85, 3-[{[4-({1-[1-(3-ethoxyphenyl)-3-ethyl-1H-pyrazol-4-yl]-3-methylbutyl}amino)phenyl]carbonyl}(methyl)amino]propanoic acid]: the inhibition at 10 µM was determined as 68%.

With `CCOc1cccc(-n2cc(C(CC(C)C)Nc3ccc(C(=O)NCCC(=O)O)cc3)c(CC)n2)c1` (stereo not drawn) [Example 86, 3-({[4-({1-[1-(3-ethoxyphenyl)-3-ethyl-1H-pyrazol-4-yl]-3-methylbutyl}amino)phenyl]carbonyl}amino)propanoic acid], the inhibition at 10 µM turned out to be 76%.

In the case of `CCc1nn(-c2cc(F)cc(F)c2)cc1C(Nc1ccc(C(=O)N(C)CCC(=O)O)cc1)C1CCCCC1` (stereo not drawn) [Example 87, 3-[{[4-({cyclohexyl[1-(3,5-difluorophenyl)-3-ethyl-1H-pyrazol-4-yl]methyl}amino)phenyl]carbonyl}(methyl)amino]propanoic acid], the inhibition at 10 µM stood at 64%.

Turning to `CCc1nn(-c2cc(F)cc(F)c2)cc1C(Nc1ccc(C(=O)NCCC(=O)O)cc1)C1CCCCC1` (stereo not drawn) [Example 88, 3-({[4-({cyclohexyl[1-(3,5-difluorophenyl)-3-ethyl-1H-pyrazol-4-yl]methyl}amino)phenyl]carbonyl}amino)propanoic acid], the inhibition at 10 µM stood at 71%.

Turning to `COCc1nn(-c2cc(C(F)(F)F)ccn2)cc1C(Nc1ccc(C(=O)N(C)CCC(=O)O)cc1)C1CCCCC1` (stereo not drawn) [Example 89, 3-[({4-[(cyclohexyl{3-(methoxymethyl)-1-[4-(trifluoromethyl)pyridin-2-yl]-1H-pyrazol-4-yl}methyl)amino]phenyl}carbonyl)(methyl)amino]propanoic acid], the inhibition at 10 µM was 62%.

In the case of `COCc1nn(-c2cccc(C(F)(F)F)n2)cc1C(Nc1ccc(C(=O)N(C)CCC(=O)O)cc1)C1CCCCC1` (stereo not drawn) [Example 90, 3-[({4-[(cyclohexyl{3-(methoxymethyl)-1-[6-(trifluoromethyl)pyridin-2-yl]-1H-pyrazol-4-yl}methyl)amino]phenyl}carbonyl)(methyl)amino]propanoic acid], the inhibition at 10 µM was 66%.

Turning to `COCc1nn(-c2cccc(C(F)(F)F)n2)cc1C(Nc1ccc(C(=O)NCCC(=O)O)cc1)C1CCCCC1` (stereo not drawn) [Example 91, 3-[({4-[(cyclohexyl{3-(methoxymethyl)-1-[6-(trifluoromethyl)pyridin-2-yl]-1H-pyrazol-4-yl}methyl)amino]phenyl}carbonyl)amino]propanoic acid], the inhibition at 10 µM amounted to 71%.

Regarding `CCOc1cccc(-n2cc(C(Nc3ccc(C(=O)NCC(C)C(=O)O)cc3)C3CCCCC3)c(CC)n2)c1` (stereo not drawn) [Example 92, 3-({[4-({cyclohexyl[1-(3-ethoxyphenyl)-3-ethyl-1H-pyrazol-4-yl]methyl}amino)phenyl]carbonyl}amino)-2-methylpropanoic acid], the inhibition at 10 µM is 56%.

For `O=C(O)CCNC(=O)c1ccc(NC(c2csc3ccccc23)C2CCCCC2)cc1` (stereo not drawn) [Example A1, 3-{[(4-{[1-benzothiophen-3-yl(cyclohexyl)methyl]amino}phenyl)carbonyl]amino}propanoic acid], the inhibition at 10 µM is 76%.

In the case of `CN(CCC(=O)O)C(=O)c1ccc(NC(c2csc3ccccc23)C2CCCCC2)cc1` (stereo not drawn) [Example A2, 3-{[(4-{[1-benzothiophen-3-yl(cyclohexyl)methyl]amino}phenyl)carbonyl](methyl)amino}-propanoic acid], the inhibition at 10 µM amounted to 64%.

Take `Cn1c(C(Nc2ccc(C(=O)NCCC(=O)O)cc2)C2CCCCC2)nc2ccccc21` (stereo not drawn) [Example A3, 3-{[(4-{[cyclohexyl(1-methyl-1H-benzimidazol-2-yl)methyl]amino}phenyl)carbonyl]amino}propanoic acid]: the inhibition at 10 µM came out at 55%.

In the case of `CN(CCC(=O)O)C(=O)c1ccc(NC(c2cc3ccccc3o2)C2CCCCC2)cc1` (stereo not drawn) [Example A4, 3-{[(4-{[1-benzofuran-2-yl(cyclohexyl)methyl]amino}phenyl)carbonyl](methyl)amino}-propanoic acid], the inhibition at 10 µM was 66%.

Regarding `CN(CCC(=O)O)C(=O)c1ccc(NC(c2cc3ccccc3s2)C2CCCCC2)cc1` (stereo not drawn) [Example A5, 3-{[(4-{[1-benzothiophen-2-yl(cyclohexyl)methyl]amino}phenyl)carbonyl](methyl)amino}-propanoic acid], the inhibition at 10 µM was found to be 77%.

Turning to `O=C(O)CCNC(=O)c1ccc(NC(c2cc3ccccc3s2)C2CCCCC2)cc1` (stereo not drawn) [Example A6, 3-{[(4-{[1-benzothiophen-2-yl(cyclohexyl)methyl]amino}phenyl)carbonyl]amino}propanoic acid], the inhibition at 10 µM turned out to be 87%.

Take `CN(CCC(=O)O)C(=O)c1ccc(NC(c2nn(C)c3ccccc23)C2CCCCC2)cc1` (stereo not drawn) [Example A7, 3-{[(4-{[cyclohexyl(1-methyl-1H-indazol-3-yl)methyl]amino}phenyl)carbonyl](methyl)amino}propanoic acid]: the inhibition at 10 µM amounted to 60%.

`Cc1sc2ccccc2c1C(Nc1ccc(C(=O)NCCC(=O)O)cc1)C1CCCCC1` (stereo not drawn) [Example A8, 3-{[(4-{[cyclohexyl(2-methyl-1-benzothiophen-3-yl)methyl]amino}phenyl)carbonyl]amino}propanoic acid]: the inhibition at 10 µM was found to be 78%.

In the case of `Cc1sc2ccccc2c1C(Nc1ccc(C(=O)N(C)CCC(=O)O)cc1)C1CCCCC1` (stereo not drawn) [Example A9, 3-{[(4-{[cyclohexyl(2-methyl-1-benzothiophen-3-yl)methyl]amino}phenyl)carbonyl](methyl)amino}propanoic acid], the inhibition at 10 µM was found to be 67%.

`Cc1c(C(Nc2ccc(C(=O)NCCC(=O)O)cc2)C2CCCCC2)sc2ccccc12` (stereo not drawn) [Example A10, 3-{[(4-{[cyclohexyl(3-methyl-1-benzothiophen-2-yl)methyl]amino}phenyl)carbonyl]amino}propanoic acid]: the inhibition at 10 µM came to 80%.

As to `O=C(O)CCNC(=O)c1ccc(NC(c2cc3cc(C(F)(F)F)ccc3s2)C2CCCCC2)cc1` (stereo not drawn) [Example A11, 3-({[4-({cyclohexyl[5-(trifluoromethyl)-1-benzothiophen-2-yl]methyl}amino)phenyl]carbonyl}amino)propanoic acid], the inhibition at 10 µM stood at 74%.

As for `O=C(O)CCNC(=O)c1ccc(NC(c2cc3ccc(C(F)(F)F)cc3s2)C2CCCCC2)cc1` (stereo not drawn) [Example A12, 3-({[4-({cyclohexyl[6-(trifluoromethyl)-1-benzothiophen-2-yl]methyl}amino)phenyl]carbonyl}amino)propanoic acid], the inhibition at 10 µM turned out to be 72%.

For the molecule `Cc1c(C(Nc2ccc(C(=O)N(C)CCC(=O)O)cc2)C2CCCCC2)sc2ccccc12` (stereo not drawn) [Example A13, 3-{[(4-{[cyclohexyl(3-methyl-1-benzothiophen-2-yl)methyl]amino}phenyl)carbonyl](methyl)amino}propanoic acid], the inhibition at 10 µM stood at 85%.

Regarding `O=C(O)CCNC(=O)c1ccc(NC(c2nn(-c3ccccc3)c3ccccc23)C2CCCCC2)cc1` (stereo not drawn) [Example A14, 3-{[(4-{[cyclohexyl(1-phenyl-1H-indazol-3-yl)methyl]amino}phenyl)carbonyl]amino}propanoic acid], the inhibition at 10 µM is 73%.

Turning to `CN(CCC(=O)O)C(=O)c1ccc(NC(c2nn(-c3ccccc3)c3ccccc23)C2CCCCC2)cc1` (stereo not drawn) [Example A15, 3-{[(4-{[cyclohexyl(1-phenyl-1H-indazol-3-yl)methyl]amino}phenyl)carbonyl](methyl)amino}propanoic acid], the inhibition at 10 µM worked out at 72%.

These data come from patent US8436043B2 (Takeda Pharmaceutical Company Limited, priority 2008, dated 2013).
